Assay [1] relates to A549 lung carcinoma cells. As to the kind of experiment: Cell proliferation assay, A549 (CellTiter-Glo, 7 days). The format is cell-based. Conditions: A549, 7 days, CellTiter-Glo 2.0. The protocol:
(§1) HepG2 hepatoma cells (ATCC, HB-8065) were maintained in DMEM with high glucose (Lonza, 12-914F) supplemented with 10% fetal bovine serum (FBS; Biowest, S181B-500) and 2 mM L-glutamine (Biowest, X0551-100) at 37° C. and 5% CO2. A549 lung carcinoma cells (ATCC, CCL-185) were maintained in F-12K medium (ThermoFisher 21127030) supplemented with 10% FBS at 37° C. and 5% CO2. Exponentially growing HepG2 or A549 were plated in white, clear-bottom 96-well plates (Corning, 3903) at a cell density of 2000 (HepG2) or 350 (A549) cells per well in 199 μL of HepG2 medium. Next, 1 μL of a 5-fold 9-point dilution series of test compound in DMSO was added to the different wells. Cells were incubated at 37° C. 5% CO2 for 7 days. Cell viability was assessed on day 7 with the CellTiter-Glo 2.0 Cell Viability assay kit (Promega, G9243) to quantify the intracellular amounts of ATP: first, 100 μL of cell culture medium was removed from each well, next 100 μL of CellTiter-Glo® 2.0 Reagent was added and plates were shaken for 2 minutes on an orbital shaker. After 10 minutes stabilization at room temperature, read-out was performed on a ThermoFisher VarioSkan Lux plate reader. Counts were normalized to DMSO control (0% inhibition) and the cytotoxic control (100% inhibition) and EC50 values were determined in GraphPad Prism 8 using the [Agonist] vs. response—Variable slope (four parameters) function.
(§2) As shown by the data of Table 2, compounds of Formula (I) have activity in this assay. A value of ‘A’ in the table below indicates an EC50 of <20 nM, a value of ‘B’ indicates an EC50≥20 nM to <100 nM, a value of ‘C’ indicates an EC50 value of EC50≥100 nM to <1000 nM and a value of ‘D’ indicates an EC50≥1000 nM

Assay [2] has as its target PRMT5/MEP50 (Homo sapiens (Human), UniProt O14744). Kind of assay: PRMT5/MEP50 enzyme inhibition assay, Assay 2 (384-well, MALDI mass spectrometry, histone H4 1-21 peptide). The format is biochemical. Conditions: 1 μM SAM, 0.1 μM histone H4 1-21 peptide, 18-hour incubation at rt. How it is done:
Compounds were tested for inhibition of methyltransferase activity in 384-well plate assay format using mass spectrometry technology. In this enzyme inhibition assay, compounds were tested in a 11-dose IC50 mode with 3-serial dilution, in duplicate, starting at 1, 10, or 100 μM. Reactions were carried out at 1 μM SAM and 0.1 μM histone H4 1-21 peptide as substrates for methyl transfer. Following an 18-hour incubation at rt, the reaction was stopped with 0.5% formic acid. Products of the reaction were captured while unreacted substrates were washed away, prior to MALDI mass spectrometry detection and analysis. Percent enzyme activity was calculated based on no inhibitor DMSO control as 100% activity. EC50 values were determined in GraphPad Prism 8 using the [inhibitor] vs. response—Variable slope (four parameters) function.
Compounds of Formula (I) show activity in this assay. A value of ‘A’ in the table below indicates an IC50 of <1 nM, a value of ‘B’ indicates an IC50≥1 nM to ≤100 nM, and a value of ‘C’ indicates an IC50 value of >100 nM.

The test system of assay [3] is HepG2 hepatoma cells. As to the kind of experiment: Cell proliferation assay, HepG2 (CellTiter-Glo, 7 days). Conditions: HepG2, 7 days, CellTiter-Glo 2.0. The format is cell-based. The protocol: as §1, §2

These results are taken from US11198699B2 (ALIGOS THERAPEUTICS, INC., priority 2019, dated 2021).

PRMT5/MEP50, sequence (O14744 whole entry): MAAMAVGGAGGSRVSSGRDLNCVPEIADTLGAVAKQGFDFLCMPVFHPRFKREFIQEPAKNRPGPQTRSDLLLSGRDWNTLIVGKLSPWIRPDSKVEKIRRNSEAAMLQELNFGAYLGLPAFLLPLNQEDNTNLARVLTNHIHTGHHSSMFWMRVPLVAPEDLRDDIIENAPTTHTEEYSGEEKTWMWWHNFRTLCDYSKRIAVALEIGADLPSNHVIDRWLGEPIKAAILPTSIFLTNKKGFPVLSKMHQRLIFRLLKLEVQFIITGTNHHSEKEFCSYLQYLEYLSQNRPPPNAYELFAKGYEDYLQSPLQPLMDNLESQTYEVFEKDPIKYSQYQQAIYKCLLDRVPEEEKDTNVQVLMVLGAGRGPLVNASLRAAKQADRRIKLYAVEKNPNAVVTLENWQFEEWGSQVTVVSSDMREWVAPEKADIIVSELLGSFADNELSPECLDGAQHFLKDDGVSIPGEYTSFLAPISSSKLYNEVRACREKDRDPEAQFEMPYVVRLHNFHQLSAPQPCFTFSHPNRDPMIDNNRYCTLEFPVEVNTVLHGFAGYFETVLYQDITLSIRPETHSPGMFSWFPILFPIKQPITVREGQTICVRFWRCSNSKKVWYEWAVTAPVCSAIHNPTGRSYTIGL
PRMT5/MEP50, sequence (Q9BQA1 whole entry partner): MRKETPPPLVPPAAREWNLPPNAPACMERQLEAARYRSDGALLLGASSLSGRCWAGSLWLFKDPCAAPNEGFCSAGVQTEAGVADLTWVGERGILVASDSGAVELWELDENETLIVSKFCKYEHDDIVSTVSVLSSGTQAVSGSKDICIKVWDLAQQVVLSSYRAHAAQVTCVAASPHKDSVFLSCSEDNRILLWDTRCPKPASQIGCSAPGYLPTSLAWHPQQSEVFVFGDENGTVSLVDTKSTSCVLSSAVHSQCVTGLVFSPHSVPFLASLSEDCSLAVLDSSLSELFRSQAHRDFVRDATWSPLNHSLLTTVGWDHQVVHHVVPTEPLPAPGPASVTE

For the compound `Nc1nc2cc(CC[C@@]34C[C@@H]3[C@@H](n3ccc5c(N)ncnc53)[C@H](O)[C@@H]4O)ccc2cc1Cl` [Compound 19, (1R,2R,3S,4R,5S)-1-[2-(2-amino-3-chloro-7-quinolyl)ethyl]-4-(4-aminopyrrolo[2,3-d]pyrimidin-7-yl)bicyclo[3.1.0]hexane-2,3-diol], the EC50 in assay [1] (Homo sapiens, A549, 168 h) is below 20 nM; in assay [3] (Homo sapiens, 168 h), below 20 nM. In assay [2], the IC50 was below 1 nM.

In the case of `C[C@]1(CCc2cc(F)c3ccc(N)nc3c2)C[C@@H](n2ccc3c(N)ncc(F)c32)[C@H](O)[C@@H]1O` [Compound 42, (1S,2R,3S,5R)-3-(2-(2-amino-5-fluoroquinolin-7-yl)ethyl)-5-(4-amino-7-fluoro-1H-pyrrolo[3,2-c]pyridin-1-yl)-3-methylcyclopentane-1,2-diol], the EC50 in assay [1] (Homo sapiens, A549, 168 h) was below 20 nM; in assay [3] (Homo sapiens, 168 h), below 20 nM. The compound further returned an IC50 in assay [2] below 1 nM.

With `CCCCCOC(=O)Nc1ccc2ccc(CC[C@@]3(C)C[C@@H](n4ccc5c(N)ncnc54)[C@H](O)[C@@H]3O)cc2n1` [Compound 20, pentyl N-[7-[2-[(1S,2R,3S,4R)-4-(4-aminopyrrolo[2,3-d]pyrimidin-7-yl)-2,3-dihydroxy-1-methyl-cyclopentyl]ethyl]-2-quinolyl]carbamate], the EC50 in assay [1] (Homo sapiens, A549, 168 h) is 20 to 100 nM; in assay [3] (Homo sapiens, 168 h) it was below 20 nM. Moreover, in assay [2], the IC50 was in the range of 1 to 100 nM.

With `C[C@]1(CCc2ccc3ccc(N)nc3c2)C[C@@H](n2ccc3c(N)ncc(F)c32)[C@H](O)[C@@H]1O` [Compound 21, (1S,2R,3S,5R)-5-(4-amino-7-fluoro-pyrrolo[3,2-c]pyridin-1-yl)-3-[2-(2-amino-7-quinolyl)ethyl]-3-methyl-cyclopentane-1,2-diol], the EC50 is below 20 nM in assay [1] (Homo sapiens, A549, 168 h) and below 20 nM in assay [3] (Homo sapiens, 168 h). The compound further came in with an IC50 in assay [2] below 1 nM.

As for `C[C@]1(CCCCc2ccc(Cl)c(N)n2)C[C@@H](n2ccc3c(N)ncnc32)[C@H](O)[C@@H]1O` [Compound 46, (1S,2R,3S,5R)-3-(4-(6-amino-5-chloropyridin-2-yl)butyl)-5-(4-amino-7H-pyrrolo[2,3-d]pyrimidin-7-yl)-3-methylcyclopentane-1,2-diol], the EC50 in assay [1] (Homo sapiens, A549, 168 h) lay in the range of 100 to 1000 nM; in assay [3] (Homo sapiens, 168 h), 100 to 1000 nM. Also, the IC50 in assay [2] is below 1 nM.

`Nc1nc2cc(CC[C@@]3(F)C[C@@H](n4ccc5c(N)ncnc54)[C@H](O)[C@@H]3O)cc(F)c2cc1Cl` [Compound 36, (1S,2S,3R,5R)-3-(2-(2-amino-3-chloro-5-fluoroquinolin-7-yl)ethyl)-5-(4-amino-7H-pyrrolo[2,3-d]pyrimidin-7-yl)-3-fluorocyclopentane-1,2-diol]: the EC50 is below 20 nM in assay [1] (Homo sapiens, A549, 168 h) and below 20 nM in assay [3] (Homo sapiens, 168 h). The same compound displayed an IC50 in assay [2] below 1 nM.

As for `C[C@]1(CCc2ccc3nc(N)ccc3c2)C[C@@H](n2ccc3c(N)ncc(F)c32)[C@H](O)[C@@H]1O` [Compound 21-A], the EC50 was at least 1000 nM in assay [1] (Homo sapiens, A549, 168 h) and at least 1000 nM in assay [3] (Homo sapiens, 168 h). In assay [2], this compound yielded an IC50 of 1 to 100 nM.

Take `Nc1nc2cc(OC[C@@]34C[C@@H]3[C@@H](n3ccc5c(N)ncnc53)[C@H](O)[C@@H]4O)ccc2cc1Br` [Compound 15, (1R,2R,3S,4R,5S)-1-[(2-amino-3-bromo-7-quinolyl)oxymethyl]-4-(4-aminopyrrolo[2,3-d]pyrimidin-7-yl)bicyclo[3.1.0]hexane-2,3-diol]: the EC50 in assay [1] (Homo sapiens, A549, 168 h) lay in the range of 100 to 1000 nM; in assay [3] (Homo sapiens, 168 h) it was 100 to 1000 nM. This compound also showed an IC50 in assay [2] below 1 nM.

With `Cc1cnc2cc(OC[C@@]34C[C@@H]3[C@@H](n3ccc5c(N)ncnc53)[C@H](O)[C@@H]4O)ccn12` [Compound 16], the EC50 in assay [1] and in assay [3] was at least 1000 nM in each case. Also, in assay [2], the IC50 is below 1 nM.

For `C[C@]1(CCc2ccc3cc(Cl)c(N)nc3c2)C[C@@H](n2ccc3c(N)ncc(F)c32)[C@H](O)[C@@H]1O` [Compound 49], the EC50 in assay [1] (Homo sapiens, A549, 168 h) is below 20 nM; in assay [3] (Homo sapiens, 168 h), below 20 nM. The same compound gave an IC50 in assay [2] below 1 nM.

As for `C[C@]1(CCc2cc(F)c3ccc(N)nc3c2)C[C@@H](n2ccc3c(N)ncnc32)[C@H](O)[C@@H]1O` [Compound 37, (1S,2R,3S,5R)-3-(2-(2-amino-5-fluoroquinolin-7-yl)ethyl)-5-(4-amino-7H-pyrrolo[2,3-d]pyrimidin-7-yl)-3-methylcyclopentane-1,2-diol], the EC50 is below 20 nM in assay [1] (Homo sapiens, A549, 168 h) and below 20 nM in assay [3] (Homo sapiens, 168 h). Moreover, in assay [2], the IC50 is below 1 nM.

Turning to `C[C@]1(CCc2ccc3ccc(N)nc3c2)C[C@@H](c2ccc3c(N)ncnn23)[C@H](O)[C@@H]1O` [Compound 48], the EC50 in assay [1] (Homo sapiens, A549, 168 h) was below 20 nM; in assay [3] (Homo sapiens, 168 h), below 20 nM. The IC50 in assay [2] is below 1 nM.

As for `C[C@]1(CCc2ccc3ccc(N)nc3n2)C[C@@H](n2ccc3c(N)ncnc32)[C@H](O)[C@@H]1O` [Compound 24], the EC50 in assay [1] and in assay [3] was 20 to 100 nM each time. Besides, the IC50 in assay [2] was below 1 nM.

Take `C[C@]1(CCc2ccc3cc(C#N)c(N)nc3c2)C[C@@H](n2ccc3c(N)ncnc32)[C@H](O)[C@@H]1O` [Compound 27]: the EC50 in assay [1] and in assay [3] was 20 to 100 nM in each case. This compound came in with an IC50 in assay [2] below 1 nM.

Take `C[C@]1(CCc2cc(F)c3cc(Cl)c(N)nc3c2)C[C@@H](n2ccc3c(N)ncnc32)[C@H](O)[C@@H]1O` [Compound 30, (1S,2R,3S,5R)-3-(2-(2-amino-3-chloro-5-fluoroquinolin-7-yl)ethyl)-5-(4-amino-7H-pyrrolo[2,3-d]pyrimidin-7-yl)-3-methylcyclopentane-1,2-diol]: the EC50 in assay [1] (Homo sapiens, A549, 168 h) was below 20 nM; in assay [3] (Homo sapiens, 168 h), below 20 nM. In assay [2], this compound came in with an IC50 below 1 nM.

On to `C[C@]1(CCc2cc(F)c3cc(Cl)c(N)nc3c2)C[C@@H](n2cc(F)c3c(N)nccc32)[C@H](O)[C@@H]1O` [Compound 43, (1S,2R,3S,5R)-3-(2-(2-amino-3-chloro-5-fluoroquinolin-7-yl)ethyl)-5-(4-amino-3-fluoro-1H-pyrrolo[3,2-c]pyridin-1-yl)-3-methylcyclopentane-1,2-diol], for which the EC50 in assay [1] (Homo sapiens, A549, 168 h) is below 20 nM; in assay [3] (Homo sapiens, 168 h), 20 to 100 nM. For the same compound, the IC50 in assay [2] is below 1 nM.

Turning to `C[C@]1(CCc2cc(F)c3cc(Cl)c(N)nc3c2)C[C@@H](n2ccc3c(N)nc(Cl)nc32)[C@H](O)[C@@H]1O` [Compound 53], the EC50 in assay [1] and in assay [3] was below 20 nM in each case. For the same compound, the IC50 in assay [2] is below 1 nM.

As to `Cn1c(N)nc2cc(CC[C@@]3(C)C[C@@H](n4ccc5c(N)ncnc54)[C@H](O)[C@@H]3O)ccc2c1=O` [Compound 29], the figures for the EC50 in assay [1] and in assay [3] were 20 to 100 nM and below 20 nM, respectively. In addition, the IC50 in assay [2] is below 1 nM.

As for `NC(=O)[C@]1(CCc2cc(F)c3cc(Cl)c(N)nc3c2)C[C@@H](n2ccc3c(N)ncnc32)[C@H](O)[C@@H]1O` [Compound 45, (1R,2R,3S,4R)-1-(2-(2-amino-3-chloro-5-fluoroquinolin-7-yl)ethyl)-4-(4-amino-7H-pyrrolo[2,3-d]pyrimidin-7-yl)-2,3-dihydroxycyclopentane-1-carboxamide], the EC50 is 100 to 1000 nM in assay [1] (Homo sapiens, A549, 168 h) and 100 to 1000 nM in assay [3] (Homo sapiens, 168 h). The same compound yielded an IC50 in assay [2] below 1 nM.

With `C[C@]1(CCc2ccc3cc4c(nc3c2)NC(=O)CO4)C[C@@H](n2ccc3c(N)ncnc32)[C@H](O)[C@@H]1O` [Compound 31, 7-(2-((1S,2R,3S,4R)-4-(4-amino-7H-pyrrolo[2,3-d]pyrimidin-7-yl)-2,3-dihydroxy-1-methylcyclopentyl)ethyl)-2H-[1,4]oxazino[3,2-b]quinolin-3(4H)-one], the EC50 in assay [1] (Homo sapiens, A549, 168 h) is at least 1000 nM; in assay [3] (Homo sapiens, 168 h) it was 100 to 1000 nM. The IC50 in assay [2] was below 1 nM.

As for `C[C@]1(CCc2cc(F)c3cc(Cl)c(N)nc3c2)C[C@@H](n2ccc3c(N)nccc32)[C@H](O)[C@@H]1O` [Compound 39, (1S,2R,3S,5R)-5-(4-amino-1H-pyrrolo[3,2-c]pyridin-1-yl)-3-(2-(2-amino-3-chloro-5-fluoroquinolin-7-yl)ethyl)-3-methylcyclopentane-1,2-diol], the EC50 lay within 20 to 100 nM in assay [1] (Homo sapiens, A549, 168 h) and 20 to 100 nM in assay [3] (Homo sapiens, 168 h). The same compound gave an IC50 in assay [2] below 1 nM.
